According to patent publication US20220031670A1, “PHARMACEUTICAL COMBINATIONS FOR USE IN THE TREATMENT OF NEOPLASTIC DISEASES” (Basilea Pharmaceutica International AG, priority 2018, published 2022):
Marks after values point to notes of the source that are not given here.

Columns and labels:
[1] = test system: patient-derived pancreatic tumour PAXF1657 xenograft; experiment: Antitumor efficacy and induction of cures in the patient-derived PAXF1657 pancreatic xenograft model; type: in vivo, female NMRI nu/nu mice; settings: for # of regressed tumors (total) / T/C: day 21 after first dose; for # of confirmed cures (total) / # of tumors with TV ≤ 4 mm^3 (total) / % cures: day 60 after first dose (endpoint); for tumor free animals / cures (in words): single agent treatment (BAL101553 even at 16 mg/kg; Gemcitabine SoC)
Description: The tumor xenografts are derived from surgical specimens from cancer patients. Following excision at surgery, tumor pieces were subcutaneously implanted into immunodeficient mice and are therefore referred to as patient tumor explants passaged subcutaneously in nude mice or as patient-derived tumor xenografts (PDX). Establishment and characterization of the PDXs was performed following their primary implantation into immunodeficient mice (passage 1). The tumor xenografts were passaged until establishment of a stable growth pattern. At that point, master stocks of early passage PDXs were frozen in liquid nitrogen. Usually, a particular stock batch is only used for a limited number of further passages.
Tumor fragments for implantation were obtained from xenografts in serial passage in female NMRI nu/nu mice (NMRI-Foxn1nu). After removal from donor mice, tumors were cut into fragments (3-4 mm edge length) and placed in PBS containing 10% penicillin/streptomycin. Recipient female mice (10 weeks old NMRI-Foxn1nu animals) were anesthetized by inhalation of isoflurane and received unilateral tumor implants of PAXF1657 tumors subcutaneously in the flank.
Mice and tumor implants were monitored daily until solid tumor growth was detectable in a sufficient number of animals. At randomization, the volume of growing tumors was determined. Tumors were measured (mm) in two dimensions using calipers, and volume was calculated using the formula: Tumor Volume (TV) (mm^3)=(width^2×length)/2. […] Sixteen days after tumor cell implantation, on Day 0 of the study, mice were randomized into groups of 10 animals, with group median tumor volumes of 106.6-109.2 mm^3 and body weights of 25.3-27.0 g.
The solution of BAL101553 with a concentration of 1.6 mg/ml for dosing at 16 mg/kg and as stock solution for the preparation of the other dosing solutions was prepared at the beginning of the study by dissolving 595.2 mg of the provided powder in 300 ml vehicle (stirring/vortexing/sonicating if necessary). The acidity of this solution was adjusted to pH 5 with a 1% sodium acetate solution; afterwards the total volume was adjusted to 372 ml by addition of the vehicle (99.7% (v/v) saline solution (0.9% (w/v) NaCl), 0.3% (v/v) sodium acetate, pH 5). The stock solution was sterile filtered and aliquoted into vials of each 12 ml that were stored at −20° C. One vial was thawed on each dosing day. For the 16 mg/kg dose, the solution was applied undiluted; for 8 mg/kg dose, one volume of the stock solution was diluted with one volume vehicle prior to application; and for 10 mg/kg dose, one volume of the stock solution was diluted with 0.6 volumes vehicle
The Gemcitabine dosing solution at a concentration of 24 mg/ml for dosing at 240 mg/kg was prepared once per week on the dosing day by dissolving 591.89 mg of Gemcitabine-HCl (Gemedac®, Medac Germany) corresponding to 264 mg active pharmaceutical ingredient in 11 ml of the vehicle (0.9% (w/v) NaCl). The dosing solution was administered in a dose volume of 10 ml/kg.
All doses were adjusted to 10 mL/kg. […] Gemcitabine was administered i.v. and BAL101553 orally.
The antitumor effect of the combination treatment with BAL101553 (prodrug of BAL27862) and gemcitabine was evaluated in the established in vivo subcutaneous patient-derived pancreatic mouse xenograft model PAXF1657. By using 3 different dosing regimens of BAL101553 as monotherapy, standard of care (SoC) dosing of gemcitabine monotherapy and the combination treatment of two different dosing regimens of BAL101553 with SoC gemcitabine, the anticancer effect of single agent treatments and of the combined treatments were determined and compared. […]

[2] = Tolerability (body weight, mortalities) in the PAXF1657 pancreatic xenograft model
Description: Animals were housed in individually ventilated cages ([…] Sealsafe™-IVC-System, […], Hohenpeissenberg, Germany), depending on group size, either in type III or type II long cages. They were kept under a 14 L:10D artificial light cycle. The temperature inside the cages was maintained at 25±1° C. with a relative humidity of 40-70% and an air change (AC) rate in the cage of 60-65 AC/hour. Dust-free bedding consisting of aspen wood chips with approximate dimensions of 5×5×1 mm (ABEDD®-LAB & VET Service GmbH, Vienna, Austria, Product Code: LTE E-001) and additional nesting material were used. The cages including the bedding and the nesting material were changed weekly. The animals were fed autoclaved Teklad Global 19% Protein Extruded Diet (T.2019S.12) from Envigo RMS SARL and had access to sterile filtered and acidified (pH 2.5) tap water that was changed twice weekly. Feed and water were provided ad libitum. All materials were autoclaved prior to use. Animals were provided with a nutrient fortified water gel (DietGel® Recovery from ClearH2O, Maine, USA) from day 0 to day 45, which was changed every other day.
Groups of mice (n=10) bearing PAXF1657 tumors were dosed as outlined in Table 1. All doses were adjusted to 10 mL/kg. The control groups received oral doses of vehicle (pH 5 buffered 0.9% NaCl solution). Gemcitabine was administered i.v. and BAL101553 orally. When Gemcitabine and BAL0101553 were dosed in combination, Gemcitabine was administered first followed by a delay of 4 h for the BAL0101553 dosing.
Body weights and tumor volumes were recorded twice weekly until the end of the on day 60. These parameters were analyzed and graphically represented by using GraphPad-Prism™ 7 for Windows according to standard procedure. Tumor growth regression was defined as TV (at day 21)−TV (day 0)<0. […] Tumor free animals at the end of the study time (day 60) were assessed for residual PAXF1657 tumor cells by pathological methods. Skin und subcutaneous tissue including the tumor cell inoculation site from the flank region were resected, preserved in formalin and embedded in paraffin. Sections of approximately 5 μm were mounted on glass slides and stained with hematoxylin/eosin and were evaluated by a trained pathologist, to identify residual tumor cells at the site of injection, and were being reported as positive for the existence of residual tumor cells or as negative for a complete lack of any evidence of residual tumor cells.
Dosing schemes are outlined in Table 1.

[3] = Pharmacokinetic profile in mouse plasma (LC-MS/MS), single agents versus combination; type: in vivo, PAXF1657 tumor bearing mice; settings: 10 minutes to 24 hours, BAL101553 oral, Gemcitabine 240 mg/kg i.v. 4 hours before BAL101553
Description: PAXF1657 tumor bearing mice of the identical strain were treated either with BAL101553 oral 10 mg/kg, Gemcitabine 240 i.v. mg/kg or with a combination of BAL101553 and Gemcitabine where Gemcitabine was administered 4 hours before BAL101553. Control animals received appropriate vehicle control. The mice were dosed until steady state was reached (BAL101553 was dosed d1-d3 and Gemcitabine was dosed on day 3, the doses used for the combination-treatment matched those used in the monotherapy). Blood was taken from every animal according to a determined schedule covering a time window of 10 minutes to 24 hours, processed for plasma and subsequently analyzed by LC-MS/MS for the determination of BAL27862 (parent drug of BAL101553) and Gemcitabine concentrations (ng/ml plasma). Data points represent mean values of ng/ml plasma concentration+/−SEM (n=3 animals). […]
The following calibration ranges in mouse plasma were applied: 1.00 to 500 ng/mL and 10 to 10000 ng/mL for BAL27862 and 10.0 to 10000 ng/mL for BAL101553 and Gemcitabine. Thus, the limit-of-quantitation (LOQ) was: 1 ng/mL for BAL27862 and 10.0 ng/mL for BAL101553 and Gemcitabine. […]

[4] = Gemcitabine i.v. 240 mg/kg qw (h:0) x6
[5] = BAL101553 p.o. 8 mg/kg qd (h:4) x42
[6] = BAL101553 p.o. 10 mg/kg qd (h:4) x42
[7] = BAL101553 p.o. 16 mg/kg qd (h:4) x42

**Q.** With `Nc1ccn([C@@H]2O[C@H](CO)[C@@H](O)C2(F)F)c(=O)n1` [Gemcitabine, gemcitabine, reference compound] as the compound, how does the “# of regressed tumors (total)” value [1, 4] read?
**A.** 4 (10)

**Q.** And the T/C [1, 4]?
**A.** 0.03

**Q.** And the “# of confirmed cures (total)” value [1, 4]?
**A.** 0 (10)

**Q.** What about the “# of tumors with TV ≤ 4 mm^3 (total)” value [1, 4] of the same compound?
**A.** 1 (10)

**Q.** And the “% cures” value [1, 4]?
**A.** 0%

**Q.** What about the “tumor free animals / cures (in words)” value [1] of the same compound?
**A.** did not lead to tumor free animals (no cures)

**Q.** And the “tumor regression (in words)” value ([1]; single agent treatment (BAL101553 even at 16 n/kg; Gemcitabine SoC))?
**A.** induced regression in some of the animals

**Q.** What about the Mortalities ([2]; Gemcitabine i.v. 240 mg/kg qw (h:0) x6, day 21 after first dose, 1 animal culled on day 8 (body-weight loss of more than 20%)) of the same compound?
**A.** 1/10*

**Q.** What about the “Body-weight change” value ([2]; mouse, in vivo, iv, 240 mg/kg) of the same compound?
**A.** 0.9 ± 0.8 g

**Q.** What about the “plasma concentrations, single agents versus combination” value [3] of the same compound?
**A.** did not change significantly

**Q.** For `N#CCCNc1nonc1-c1nc2ccccc2n1CC(=O)c1ccc(NC(=O)[C@@H](N)CCCCN)cc1` [BAL101553, (S)-2,6-Diamino-hexanoic acid [4-(2-{2-[4-(2-cyano-ethylamino)-furazan-3-yl]-benzoimidazol-1-yl}-acetyl)-phenyl]-amide], which “# of regressed tumors (total)” value [1, 5] is on record?
**A.** 0 (10)

**Q.** And the T/C [1, 5]?
**A.** 0.52

**Q.** And the “# of confirmed cures (total)” value [1, 5]?
**A.** 0 (10)

**Q.** What about the “# of tumors with TV ≤ 4 mm^3 (total)” value [1, 5] of the same compound?
**A.** 0 (20)

**Q.** What about the “% cures” value [1, 5] of the same compound?
**A.** 0%

**Q.** And the “# of regressed tumors (total)” value [1, 6]?
**A.** 0 (10)

**Q.** What about the T/C [1, 6] of the same compound?
**A.** 0.33

**Q.** And the “# of confirmed cures (total)” value [1, 6]?
**A.** 0 (10)

**Q.** And the “# of tumors with TV ≤ 4 mm^3 (total)” value [1, 6]?
**A.** 0 (10)

**Q.** What about the “% cures” value [1, 6] of the same compound?
**A.** 0%

**Q.** And the “# of regressed tumors (total)” value [1, 7]?
**A.** 0 (10)

**Q.** What about the T/C [1, 7] of the same compound?
**A.** 0.28

**Q.** And the “# of confirmed cures (total)” value [1, 7]?
**A.** 0 (10)

**Q.** And the “# of tumors with TV ≤ 4 mm^3 (total)” value [1, 7]?
**A.** 0 (10)

**Q.** And the “% cures” value [1, 7]?
**A.** 0%

**Q.** What about the “tumor free animals / cures (in words)” value [1] of the same compound?
**A.** did neither lead to tumor free animals

**Q.** And the Mortalities ([2]; female, NMRI nu/nu, mouse, in vivo, po, 8 mg/kg, 21 day)?
**A.** 0/10

**Q.** What about the Mortalities ([2]; female, NMRI nu/nu, mouse, in vivo, po, 10 mg/kg, 21 day) of the same compound?
**A.** 0/10

**Q.** What about the Mortalities ([2]; female, NMRI nu/nu, mouse, in vivo, po, 16 mg/kg, 21 day) of the same compound?
**A.** 0/10

**Q.** And the “Body-weight change” value ([2]; mouse, in vivo, po, 8 mg/kg)?
**A.** 0.9 ± 0.8 g

**Q.** What about the “Body-weight change” value ([2]; mouse, in vivo, po, 10 mg/kg) of the same compound?
**A.** 1.0 ± 1.2 g

**Q.** And the “Body-weight change” value ([2]; mouse, in vivo, po, 16 mg/kg)?
**A.** 1.1 ± 0.9 g

**Q.** Which “plasma concentrations, single agents versus combination” value [3] does the source give for `N#CCCNc1nonc1-c1nc2ccccc2n1CC(=O)c1ccc(N)cc1` [BAL27862, 3-(4-{1-[2-(4-Amino-phenyl)-2-oxo-ethyl]-1H-benzoimidazol-2-yl}-furazan-3-ylamino)-propionitrile] here?
**A.** did not change significantly
